{
  "source": "patent US20160015619A1",
  "about": "“TRANSPARENT SOL, GEL COMPOSITION CONTAINING HIGH CONCENTRATIONS OF VITAMIN C AND VITAMIN C DERIVATIVE” (ABIO CO., LTD., priority 2013, published 2016)",
  "assay": "Anti-oxidation experiment (DPPH free radical removing capability)",
  "assay_type": "biochemical",
  "description": "The free radical removing capability was experimented using the embodiment 4 in Table 5. In case of the DPPH (1,1-diphenyl-2-picrylhydrazyl) used, the radical removing capability of radical sample which changes colors depending on the changes in oxidation/reduction environment was confirmed through the measurements of the O.D. value.\nIn details, the DPPH experiment sample was prepared by inputting the solution of the embodiment 4 in Table 5 into each well of the 96-well plate by 100 μl. The DPPH was added by 10 μl, and the mixture was placed at a room temperature for 30 minutes, and the absorbance at 517 nm was measured using a micro plate reader. At this time, the solution prepared by adding 10% of the distilled water instead of vitamin C into the solution of the embodiment 4 and the pure vitamin C were used as a control group.",
  "data": [
    {"smiles": "O=C1O[C@H]([C@@H](O)CO)C(O)=C1O", "note": "[Control group 2 (vitamin C), L-ascorbic acid]", "values": [
      {"measurement": "effect on the activation of the anti-oxidation (in words)", "value": "high effect on the activation of the anti-oxidation"},
      {"measurement": "Activation (%) of anti-oxidation", "setting": "room temperature 30 minutes, absorbance at 517 nm", "value": 90.8, "unit": "%"}
    ]}
  ]
}
